The target in this assay is T1, h-GABAA α1β3γ2 (Homo sapiens, UniProt P14867+P18507).
T1 construct: expressed in transfected cells; host or cells: HEK293F cells, membranes
The experiment in a line: Radioligand binding assay, [3H]Flumazenil competition, HEK293F membranes. The following applies: for γ2/γ1 Selectivity Ratio / LogSel: Table 1; for γ2/γ1 Selectivity Ratio: Ki α1β3γ2 (nM)/Ki α2β2γ1 (nM); for LogSel: Log[Ki α1β3γ2 (nM)/Ki α2β2γ1 (nM)]. The protocol:
The affinity of compounds at GABAA γ2 subunit-containing receptors was measured by competition for [^3H]Flumazenil (81.1 Ci/mmol; Roche) binding to HEK293F cells expressing human (transiently transfected) receptors of composition α1β3γ2.
Harvested pellets from HEK293F cells expressing the different GABAA γ2 receptor subtypes were resuspended in Mannitol Buffer pH 7.2-7.4 and processed as described above for the cells expressing the GABAA γ1 subunit-containing receptors.
Assays were incubated to equilibrium for 1 hour at 4° C. and harvested onto GF/C uni-filters (Packard) by filtration using a Packard harvester and washing with ice-cold wash buffer (50 mM Tris; pH 7.5). After drying, filter-retained radioactivity was detected by liquid scintillation counting. Ki values were calculated using Excel-Fit (Microsoft) and are the means of two determinations.

We go through 25 molecules from US20230141603A1, “BENZODIAZEPINE DERIVATIVES AS GABA A GAMMA1 PAM” (Hoffmann-La Roche Inc., priority 2021, published 2023).

For the molecule `Fc1ccccc1C1=NCc2nnc(C3CC3)n2-c2ccc(Br)c(Cl)c21` [Example 2, 8-bromo-7-chloro-1-cyclopropyl-6-(2-fluorophenyl)-4H-[1,2,4]triazolo[4,3-a][1,4]benzodiazepine], the Ki stood at 486 nM, the “γ2/γ1 Selectivity Ratio” value was found to be 10.1 and the LogSel is listed as 1.01.

As for `Fc1cccnc1C1=NCc2nnc(-c3cccnn3)n2-c2ccc(C(F)(F)F)c(Cl)c21` [Example 72, 7-chloro-6-(3-fluoro-2-pyridyl)-1-pyridazin-3-yl-8-(trifluoromethyl)-4H-[1,2,4]triazolo[4,3-a][1,4]benzodiazepine], the Ki is 10300 nM, the “γ2/γ1 Selectivity Ratio” value is given as 342.1 and the LogSel is listed as 2.53.

Take `Fc1cccc(F)c1C1=NCc2nncn2-c2ccc(Br)c(Cl)c21` [Example 7, 8-bromo-7-chloro-6-(2,6-difluorophenyl)-4H-[1,2,4]triazolo[4,3-a][1,4]benzodiazepine]: the inhibition constant Ki was 205 nM, the “γ2/γ1 Selectivity Ratio” value worked out at 24.2 and the LogSel came out at 1.38.

On to `Clc1cccnc1C1=NCc2nnc(-c3cccnn3)n2-c2ccc(Br)c(Cl)c21` [Example 47, 8-bromo-7-chloro-6-(3-chloro-2-pyridyl)-1-pyridazin-3-yl-4H-[1,2,4]triazolo[4,3-a][1,4]benzodiazepine], for which the inhibition constant (Ki) was found to be 222 nM, the “γ2/γ1 Selectivity Ratio” value is listed as 14.0 and the LogSel was 1.15.

For `Cc1ccc2c(c1Cl)C(c1c(F)cccc1F)=NCc1nncn1-2` [Example 17, 7-chloro-6-(2,6-difluorophenyl)-8-methyl-4H-[1,2,4]triazolo[4,3-a][1,4]benzodiazepine], the Ki is 493 nM, the “γ2/γ1 Selectivity Ratio” value is given as 24.9 and the LogSel came out at 1.40.

On to `Fc1cccnc1C1=NCc2nnc(C3CC3)n2-c2ccc(Cl)c(Cl)c21` [Example 65, 7,8-dichloro-1-cyclopropyl-6-(3-fluoro-2-pyridyl)-4H-[1,2,4]triazolo[4,3-a][1,4]benzodiazepine], for which the affinity, expressed as Ki, was 1560 nM; the “γ2/γ1 Selectivity Ratio” value was 24.0; the LogSel came to 1.38.

`COc1ccc2c(c1Cl)C(c1c(F)cccc1F)=NCc1nnc(-c3cccnc3)n1-2` [Example 62, 7-chloro-6-(2,6-difluorophenyl)-8-methoxy-1-(3-pyridyl)-4H-[1,2,4]triazolo[4,3-a][1,4]benzodiazepine]: the Ki stood at 2150 nM, the “γ2/γ1 Selectivity Ratio” value is on record as 38.9 and the LogSel stood at 1.59.

`Fc1cccc(F)c1C1=NCc2nnc(-c3cccnn3)n2-c2ccc(C(F)(F)F)c(Cl)c21` [Example 38, 7-chloro-6-(2,6-difluorophenyl)-1-pyridazin-3-yl-8-(trifluoromethyl)-4H-[1,2,4]triazolo[4,3-a][1,4]benzodiazepine]: the Ki came out at 1430 nM, the “γ2/γ1 Selectivity Ratio” value is 113.4 and the LogSel is 2.05.

Turning to `Cc1nnc2n1-c1ccc(Cl)c(Cl)c1C(c1c(F)cccc1F)=NC2` [Example 5, 7,8-dichloro-6-(2,6-difluorophenyl)-1-methyl-4H-[1,2,4]triazolo[4,3-a][1,4]benzodiazepine], the Ki was determined as 137 nM, the “γ2/γ1 Selectivity Ratio” value amounted to 20.8 and the LogSel is 1.32.

Consider `CC(F)(F)c1ccc2c(c1Cl)C(c1c(F)cccc1F)=NCc1nncn1-2` [Example 21, 7-chloro-8-(1,1-difluoroethyl)-6-(2,6-difluorophenyl)-4H-[1,2,4]triazolo[4,3-a][1,4]benzodiazepine], for which the Ki came out at 1790 nM, the “γ2/γ1 Selectivity Ratio” value was 34.5 and the LogSel worked out at 1.54.

Turning to `Cc1nnc2n1-c1ccc(Br)c(Cl)c1C(c1c(F)cccc1Cl)=NC2` [Example 50, 8-bromo-7-chloro-6-(2-chloro-6-fluoro-phenyl)-1-methyl-4H-[1,2,4]triazolo[4,3-a][1,4]benzodiazepine], the affinity corresponds to a Ki of 73.8 nM, the “γ2/γ1 Selectivity Ratio” value came out at 15.8 and the LogSel was 1.20.

As for `Cn1cc(-c2nnc3n2-c2ccc(Cl)c(Cl)c2C(c2ncccc2F)=NC3)cn1` [Example 58, 7,8-dichloro-6-(3-fluoro-2-pyridyl)-1-(1-methylpyrazol-4-yl)-4H-[1,2,4]triazolo[4,3-a][1,4]benzodiazepine], affinity was put at a Ki of 1300 nM, the “γ2/γ1 Selectivity Ratio” value is 39.4 and the LogSel is listed as 1.60.

Regarding `O=c1[nH]nc2n1-c1ccc(Br)c(Cl)c1C(c1ccccc1F)=NC2` [Example 26, 8-bromo-7-chloro-6-(2-fluorophenyl)-2,4-dihydro-[1,2,4]triazolo[4,3-a][1,4]benzodiazepin-1-one], the affinity corresponds to a Ki of 698 nM, the “γ2/γ1 Selectivity Ratio” value came to 22.1 and the LogSel is on record as 1.34.

Consider `Fc1cccnc1C1=NCc2nnc(-c3cccnn3)n2-c2ccc(Br)c(Cl)c21` [Example 45, 8-bromo-7-chloro-6-(3-fluoro-2-pyridyl)-1-pyridazin-3-yl-4H-[1,2,4]triazolo[4,3-a][1,4]benzodiazepine], for which the Ki is 1220 nM, the “γ2/γ1 Selectivity Ratio” value came to 77.7 and the LogSel stood at 1.89.

On to `Fc1cccnc1C1=NCc2nncn2-c2ccc(Br)c(Cl)c21` [Example 29, 8-bromo-7-chloro-6-(3-fluoro-2-pyridyl)-4H-[1,2,4]triazolo[4,3-a][1,4]benzodiazepine], for which the Ki came to 789 nM, the “γ2/γ1 Selectivity Ratio” value is given as 16.6 and the LogSel was determined as 1.22.

Turning to `Cc1ccc2c(c1Cl)C(c1c(F)cccc1F)=NCc1n[nH]c(=O)n1-2` [Example 16, 7-chloro-6-(2,6-difluorophenyl)-8-methyl-2,4-dihydro-[1,2,4]triazolo[4,3-a][1,4]benzodiazepin-1-one], the inhibitory constant (Ki) came to 666 nM, the “γ2/γ1 Selectivity Ratio” value came out at 25.1 and the LogSel was 1.40.

As for `CO[C@H]1C[C@H](c2nnc3n2-c2ccc(Cl)c(Cl)c2C(c2c(F)cccc2F)=NC3)C1` [Example 91, trans-7,8-dichloro-6-(2,6-difluorophenyl)-1-(3-methoxycyclobutyl)-4H-[1,2,4]triazolo[4,3-a][1,4]benzodiazepine], the Ki worked out at 1340 nM, the “γ2/γ1 Selectivity Ratio” value is reported as 36.8 and the LogSel was 1.57.

Take `COc1ccc2c(c1Cl)C(c1c(F)cccc1F)=NCc1nnc(-c3cccnn3)n1-2` [Example 57, 7-chloro-6-(2,6-difluorophenyl)-8-methoxy-1-pyridazin-3-yl-4H-[1,2,4]triazolo[4,3-a][1,4]benzodiazepine]: the Ki came to 2110 nM, the “γ2/γ1 Selectivity Ratio” value amounted to 36.5 and the LogSel came out at 1.56.

With `Fc1cccc(F)c1C1=NCc2nnc(-c3ccncn3)n2-c2ccc(Br)c(Br)c21` [Example 43, 7,8-dibromo-6-(2,6-difluorophenyl)-1-pyrimidin-4-yl-4H-[1,2,4]triazolo[4,3-a][1,4]benzodiazepine], the Ki worked out at 510 nM, the “γ2/γ1 Selectivity Ratio” value amounted to 88.5 and the LogSel came out at 1.95.

Take `O=c1[nH]nc2n1-c1ccc(Cl)c(Cl)c1C(c1c(F)cccc1F)=NC2` [Example 9, 7,8-dichloro-6-(2,6-difluorophenyl)-2,4-dihydro-[1,2,4]triazolo[4,3-a][1,4]benzodiazepin-1-one]: the affinity corresponds to a Ki of 396 nM, the “γ2/γ1 Selectivity Ratio” value is 49.7 and the LogSel is 1.70.

Take `Fc1ccccc1C1=NCc2nnc(-c3cccnn3)n2-c2ccc(Br)c(Cl)c21` [Example 3, 8-bromo-7-chloro-6-(2-fluorophenyl)-1-pyridazin-3-yl-4H-[1,2,4]triazolo[4,3-a][1,4]benzodiazepine]: the inhibition constant Ki is 453 nM, the “γ2/γ1 Selectivity Ratio” value is 51.2 and the LogSel is recorded as 1.71.

In the case of `Cc1nnc2n1-c1ccc(C3CC3)c(Cl)c1C(c1c(F)cccc1F)=NC2` [Example 6, 7-chloro-8-cyclopropyl-6-(2,6-difluorophenyl)-1-methyl-4H-[1,2,4]triazolo[4,3-a][1,4]benzodiazepine], the Ki worked out at 965 nM, the “γ2/γ1 Selectivity Ratio” value is 10.3 and the LogSel came out at 1.01.

Turning to `Fc1cccc(F)c1C1=NCc2nnc(-c3cccnn3)n2-c2ccc(Br)c(Cl)c21` [Example 104, 8-bromo-7-chloro-6-(2,6-difluorophenyl)-1-pyridazin-3-yl-4H-[1,2,4]triazolo[4,3-a][1,4]benzodiazepine], the affinity, expressed as Ki, was 89.3 nM; the “γ2/γ1 Selectivity Ratio” value was 38.1; the LogSel is on record as 1.58.

For the molecule `Fc1ccccc1C1=NCc2nnc(-c3ccncn3)n2-c2ccc(Cl)c(Cl)c21` [Example 18, 7,8-dichloro-6-(2-fluorophenyl)-1-pyrimidin-4-yl-4H-[1,2,4]triazolo[4,3-a][1,4]benzodiazepine], the affinity corresponds to a Ki of 865 nM, the “γ2/γ1 Selectivity Ratio” value was 40.1 and the LogSel is recorded as 1.60.

With `O=c1[nH]nc2n1-c1ccc(Cl)c(Cl)c1C(c1ncccc1F)=NC2` [Example 59, 7,8-dichloro-6-(3-fluoro-2-pyridyl)-2,4-dihydro-[1,2,4]triazolo[4,3-a][1,4]benzodiazepin-1-one], the affinity corresponds to a Ki of 577 nM, the “γ2/γ1 Selectivity Ratio” value is listed as 21.9 and the LogSel was determined as 1.34.

The term Ki denotes the dissociation constant of the complex between target and ligand, obtained from inhibition or displacement. A higher Ki goes with lower affinity.
